These results are taken from PMC7216583 (Parasites & Vectors, 2020).

Counter-ions that a name gives are not always drawn.

The first test deals with Toxoplasma gondii RH-2F tachyzoites. The experiment in a line: microbe, parasite or virus in culture. The following applies: 72 h, read-out: Parasite inhibition (%) mean.
Regarding `CNCC(O)c1ccc(O)c(O)c1` (racemic) [DL-Adrenaline], the inhibition of growth at 5 µM turned out to be 1.5%. Consider `C=CC(=O)Nc1cccc(Sc2nc(Nc3ccc(N4CCN(C)CC4)cc3)ncc2Cl)c1` [WZ8040], for which the inhibition of growth at 5 µM stood at 2.8%.

The test is the same for the next values; noted with them: 72 h, read-out: Parasite inhibition (%) mean, preliminary screen of compound library, mean.
In the case of `C[C@H]1CCN(C(=O)CC#N)C[C@@H]1N(C)c1ncnc2[nH]ccc12` [Tofacitinib (CP-690550, Tasocitinib)], the inhibition of growth at 5 µM was determined as 11.2%.

Turning to `O=C(Nc1cccnc1)N1CCC(Cc2cccc(Oc3ccc(C(F)(F)F)cn3)c2)CC1` [PF-3845], the inhibition of growth at 5 µM turned out to be 6.7%. Take `CO/N=C(\C(=O)N[C@@H]1C(=O)N2C(C(=O)O)=C(Cn3ccc(=N)n3CCO)CS[C@H]12)c1csc(N)n1` [Cefoselis sulfate]: the inhibition of growth at 5 µM was 12.1%. Still for that read-out and setting: as for `O=C1c2ccccc2C(=O)C1c1ccccc1` [Phenindione (Rectadione)], the figure is -1.7%; as for `CC(C)N(CCNC(=O)CN1CCCC1=O)C(C)C` [Pramiracetam], 24.1%; as for `CC(C)C(=O)Oc1ccc(CO)cc1[C@H](CCN(C(C)C)C(C)C)c1ccccc1` [Fesoterodine fumarate (Toviaz)], 0.2%.

With `O=C(NCC1CCOCC1)c1cnc(Nc2ccc(Cl)cc2Cl)nc1C(F)(F)F` [GW842166X], the inhibition of growth at 5 µM was -12%.

Regarding `N[C@@H]1CCCCN(c2c(F)cc3c(=O)c(C(=O)O)cn(C4CC4)c3c2Cl)C1` [Besifloxacin HCl (Besivance)], the inhibition of growth at 5 µM came out at 39.1%.

As for `CNCC(=O)c1ccc(O)c(O)c1` [Adrenalone HCl], the inhibition of growth at 5 µM stood at 17.8%. On to `Clc1ccc(C(Cn2ccnc2)OCc2ccc(Sc3ccccc3)cc2)c(Cl)c1` (stereo not shown) [Fenticonazole nitrate], for which the inhibition of growth at 5 µM was determined as 19.8%. As for `CC(C)c1nc(CN(C)C(=O)N[C@@H](CCN2CCOCC2)C(=O)N[C@H](CC[C@H](Cc2ccccc2)NC(=O)OCc2cncs2)Cc2ccccc2)cs1` [Cobicistat (GS-9350)], the inhibition of growth at 5 µM was found to be 0.8%. Still for that read-out and setting: as for `CO/N=C(\C(=O)N[C@@H]1C(=O)N2C(C(=O)OCOC(=O)C(C)(C)C)=C(/C=C\c3scnc3C)CS[C@H]12)c1csc(N)n1` [Cefditoren pivoxil], the figure is 0.2%. As to `C=CC(=O)N1CCC[C@@H](n2nc(-c3ccc(Oc4ccccc4)cc3)c3c(N)ncnc32)C1` [PCI-32765 (Ibrutinib)], the inhibition of growth at 5 µM was -0.8%. `Nc1ncnc2c1ncn2[C@@H]1O[C@@H](COP(=O)(O)OP(=O)(O)OP(=O)(O)O)[C@@H](O)[C@H]1O` [ATP (Adenosine-Triphosphate)]: the inhibition of growth at 5 µM was -56.8%. Take `CC(C)c1nc(N(C)S(C)(=O)=O)nc(-c2ccc(F)cc2)c1/C=C/[C@@H](O)C[C@@H](O)CC(=O)O` [Rosuvastatin calcium (Crestor)]: the inhibition of growth at 5 µM is -0.1%.

Staying with this test, now noted: 72 h, read-out: Parasite inhibition (%) mean, preliminary screen, mean.
For the compound `COc1cc(OC)c(/C=C/S(=O)(=O)Cc2ccc(OC)c(NCC(=O)O)c2)c(OC)c1` [Rigosertib (ON-01910)], the inhibition of growth at 5 µM turned out to be 0.1%. As for `NC1(c2ccc(-c3nc4ccn5c(=O)[nH]nc5c4cc3-c3ccccc3)cc2)CCC1` [MK-2206 2HCl], the inhibition of growth at 5 µM amounted to 45.5%. For the compound `Cn1cc(-c2ccc3nnc(Sc4ccc5ncccc5c4)n3n2)cn1` [SGX-523], the inhibition of growth at 5 µM worked out at 45.5%.

As for `O=C(O)c1ccc(Nc2ncc3c(n2)-c2ccc(Cl)cc2C(c2c(F)cccc2F)=NC3)cc1` [MLN8054], the inhibition of growth at 5 µM worked out at 58.4%. Consider `CN(C(=O)c1ccc(F)cc1C(F)(F)F)C1CCN(c2nnc(-c3ccnn3C)c3ccccc23)CC1` [LY2940680], for which the inhibition of growth at 5 µM was found to be 2.1%. The same measure, in the same setting: as for `COc1ccccc1S(=O)(=O)Nc1ccc2c(c1)CN(C)C(=O)N2` [PFI-1], the figure is 2.2%. Regarding `CCOC(=O)[C@H](CCc1ccccc1)N[C@@H](C)C(=O)N1Cc2cc(OC)c(OC)cc2C[C@H]1C(=O)O` [Moexipril HCl], the inhibition of growth at 5 µM came out at 35.3%.

As for `Nc1ccn([C@@H]2O[C@H](CO)[C@@H](O)C2(F)F)c(=O)n1` [Gemcitabine (Gemzar)], the inhibition of growth at 5 µM stood at 0.1%.
